The assay concerns the target T1, sodium ion channel (Nav1.7) (Homo sapiens, UniProt Q15858).
T1 construct: host or cells: HEK293
Briefly: Blocking effect against sodium ion channel (Nav1.7), IonFlux16 auto patch clamp, hNav1.7 HEK293 cells. The format is cell-based. Particulars: peak current after 50 seconds treatment, eight concentrations. The method, then: In order to measure the activities of the inventive compounds as antagonists, an experiment on a blocking effect against the sodium ion channel (Nav1.7) was carried out as follows.
The hNav1.7 HEK293 cell line used was a cell line having a human sodium ion channel 1.7 gene (type IX voltage-gated sodium channel alpha subunit) in human embryonic kidney (HEK) 293 cells and was purchased from Millipore. The medium used was prepared by adding 1% 100×NEAA and 10% heat inactivated FBS to DMEM F-12 and adding 1% P/S as an antibiotic thereto. G-418 as a […] was added during subculture, and the hNav1.7 HEK293 cells were cultured to a confluence of about 80% in a T75 flask in a 5% CO2 incubator at 37° C. for 2 or 3 days and detached from the flask by treatment with 0.25% trypsin solution. Then, the cells were collected by centrifugation and used in the experiment.
The compounds prepared in the Examples of the present invention were dissolved in dimethyl sulfoxide (DMSO) and used in the experiment. 90 mM and 10 mM DMSO stock solutions were prepared from each of the compounds and diluted in an extracellular solution (4 mM KCl, 138 mM NaCl, 1 mM MgCl2, 1.8 mM CaCl2, 5.6 mM glucose, 10 mM HEPES, pH 7.45) at various concentrations so that the final concentration of each compound in DMSO was 0.3% or less.
To measure the sodium ion channel blocking effect, an IonFlux16 Auto patch clamp system (Fluxion, Inc.) and a plate for exclusive use were used. The cells were distributed in an extracellular solution (4 mM KCl, 138 mM NaCl, 1 mM MgCl2, 1.8 mM CaCl2, 5.6 mM glucose, 10 mM HEPES, pH 7.45), and then dispensed in the specified region of the plate, and each of the prepared compound samples was diluted at various concentrations, and then dispensed in the specified region of the plate.
Specifically, eight concentrations per compound were set, and percent inhibition was determined by calculating the percentage of inhibition of the peak current, generated after treating the cells with each concentration of the compound for 50 seconds, relative to the peak current generated before treatment with the compound, and the IC50 value was calculated using the Sigma plot program. In Table 2 below, the percent inhibition of Nav1.7 is rated as follows: […]
(In general: The patch-clamp technique gives a direct electrical read-out from membranes.)
T1 sequence (Q15858 whole entry): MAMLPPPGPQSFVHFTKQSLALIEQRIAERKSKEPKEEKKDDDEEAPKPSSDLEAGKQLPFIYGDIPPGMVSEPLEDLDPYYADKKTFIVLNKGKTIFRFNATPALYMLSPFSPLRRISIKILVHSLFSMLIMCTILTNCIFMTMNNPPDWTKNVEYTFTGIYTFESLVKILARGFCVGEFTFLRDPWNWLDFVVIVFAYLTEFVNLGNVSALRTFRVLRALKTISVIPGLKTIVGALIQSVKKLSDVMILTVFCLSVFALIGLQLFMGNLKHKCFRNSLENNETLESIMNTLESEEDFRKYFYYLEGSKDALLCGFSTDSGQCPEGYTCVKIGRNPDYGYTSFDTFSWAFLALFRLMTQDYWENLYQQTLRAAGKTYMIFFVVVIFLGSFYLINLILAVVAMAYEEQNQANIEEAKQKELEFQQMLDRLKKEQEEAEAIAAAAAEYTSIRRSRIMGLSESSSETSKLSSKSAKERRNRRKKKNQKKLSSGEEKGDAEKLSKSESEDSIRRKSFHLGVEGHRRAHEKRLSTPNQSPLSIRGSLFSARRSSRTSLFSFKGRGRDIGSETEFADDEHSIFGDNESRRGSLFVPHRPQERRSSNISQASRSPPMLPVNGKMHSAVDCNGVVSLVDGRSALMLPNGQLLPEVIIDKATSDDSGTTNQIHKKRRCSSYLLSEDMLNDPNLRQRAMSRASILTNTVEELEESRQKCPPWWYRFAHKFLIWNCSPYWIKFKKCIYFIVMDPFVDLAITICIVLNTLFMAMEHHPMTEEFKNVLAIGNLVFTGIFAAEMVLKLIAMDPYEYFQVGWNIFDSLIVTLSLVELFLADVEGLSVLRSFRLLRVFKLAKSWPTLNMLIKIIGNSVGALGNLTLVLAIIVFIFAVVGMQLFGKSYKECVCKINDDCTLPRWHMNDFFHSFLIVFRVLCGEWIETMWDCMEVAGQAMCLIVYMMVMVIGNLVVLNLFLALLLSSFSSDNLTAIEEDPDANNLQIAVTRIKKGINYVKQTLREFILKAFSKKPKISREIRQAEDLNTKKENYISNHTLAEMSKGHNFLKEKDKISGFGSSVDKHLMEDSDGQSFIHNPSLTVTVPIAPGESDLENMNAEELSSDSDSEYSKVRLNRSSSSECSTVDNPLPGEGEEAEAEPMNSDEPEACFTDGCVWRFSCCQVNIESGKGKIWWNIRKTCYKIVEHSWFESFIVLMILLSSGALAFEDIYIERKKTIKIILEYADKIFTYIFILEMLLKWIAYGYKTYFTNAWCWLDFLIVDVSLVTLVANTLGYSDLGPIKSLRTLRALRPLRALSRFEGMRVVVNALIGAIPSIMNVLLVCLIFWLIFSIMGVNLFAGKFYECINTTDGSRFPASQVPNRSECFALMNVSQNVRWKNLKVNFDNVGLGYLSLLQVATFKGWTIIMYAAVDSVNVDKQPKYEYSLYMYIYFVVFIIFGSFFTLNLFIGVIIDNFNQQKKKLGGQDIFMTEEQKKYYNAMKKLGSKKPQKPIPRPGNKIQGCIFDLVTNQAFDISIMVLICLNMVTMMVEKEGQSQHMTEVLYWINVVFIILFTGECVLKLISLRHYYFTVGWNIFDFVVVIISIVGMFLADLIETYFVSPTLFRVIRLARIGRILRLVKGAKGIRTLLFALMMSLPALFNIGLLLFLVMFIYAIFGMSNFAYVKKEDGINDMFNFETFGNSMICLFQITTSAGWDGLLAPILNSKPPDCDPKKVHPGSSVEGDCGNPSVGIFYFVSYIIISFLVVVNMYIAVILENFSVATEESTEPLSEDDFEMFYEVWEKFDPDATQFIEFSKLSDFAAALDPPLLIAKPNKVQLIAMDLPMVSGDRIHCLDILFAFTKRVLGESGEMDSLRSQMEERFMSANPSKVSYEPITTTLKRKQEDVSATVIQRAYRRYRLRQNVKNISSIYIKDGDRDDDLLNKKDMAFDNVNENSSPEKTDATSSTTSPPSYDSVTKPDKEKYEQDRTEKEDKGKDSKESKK
By IC50 is commonly meant the concentration that inhibits the measured activity by half. High values mean lower potency, low ones higher potency. In the case of `Cn1cc(-c2cc(-c3ccccc3)ncc2Oc2ccc(S(=O)(=O)Nc3nccs3)cc2C#N)cn1` [Example 38, 3-cyano-4-((4-(1-methyl-1H-pyrazol-4-yl)-6-phenylpyridin-3-yl)oxy)-N-(thiazol-2-yl)benzenesulfonamide], the IC50 is over 100 nM.
`O=S(=O)(Nc1cscn1)c1cc(Cl)c(Oc2cnc(-c3ccc(F)c(F)c3)cc2-c2cn[nH]c2)cc1F` [Example 98, 5-chloro-4-((6-(3,4-difluorophenyl)-4-(1H-pyrazol-4-yl)pyridin-3-yl)oxy)-2-fluoro-N-(thiazol-4-yl)benzenesulfonamide] returned an IC50 of over 100 nM.
In the case of `Cn1nccc1-c1nc(-c2ccnc(F)c2)ccc1Oc1ccc(S(=O)(=O)Nc2nccs2)cc1C#N` [Example 107, 3-cyano-4-((2′-fluoro-6-(1-methyl-1H-pyrazol-5-yl)-[2,4′-bipyridin]-5-yl)oxy)-N-(thiazol-2-yl)benzenesulfonamide], the IC50 was over 100 nM.
With `O=S(=O)(Nc1nccs1)c1ccc(C(O)c2ccc(Cl)cc2-c2cccnc2)cc1` (stereo not drawn) [Example 148, 4-((4-chloro-2-(pyridin-3-yl)phenyl)(hydroxy)methyl)-N-(thiazol-2-yl)benzenesulfonamide], the IC50 was over 100 nM.
For the molecule `O=S(=O)(Nc1cscn1)c1cc(Cl)c(Oc2cnc(-c3cccc(F)c3)cc2-c2ccoc2)cc1F` [Example 59, 5-chloro-2-fluoro-4-((6-(3-fluorophenyl)-4-(furan-3-yl)pyridin-3-yl)oxy)-N-(thiazol-4-yl)benzenesulfonamide], the IC50 was over 100 nM.
Molecule `O=S(=O)(Nc1nccs1)c1cc(Cl)c(Oc2cnc(-c3cccc(F)c3)cc2-c2cccnc2)cc1F` [Example 73, 5-chloro-2-fluoro-4-((6′-(3-fluorophenyl)-[3,4′-bipyridin]-3′-yl)oxy)-N-(thiazol-2-yl)benzenesulfonamide] gave an IC50 of over 100 nM.
For `Cc1ccc(-c2cc(-c3ccccc3)ncc2Oc2ccc(S(=O)(=O)Nc3nccs3)cc2C#N)s1` [Example 42, 3-cyano-4-((4-(5-methylthiophen-2-yl)-6-phenylpyridin-3-yl)oxy)-N-(thiazol-2-yl)benzenesulfonamide], the IC50 is over 100 nM.
In turn, `Cn1nccc1-c1cc(-c2ccccc2F)ncc1Oc1ccc(S(=O)(=O)Nc2nccs2)cc1C#N` [Example 24, 3-cyano-4-((6-(2-fluorophenyl)-4-(1-methyl-1H-pyrazol-5-yl)pyridin-3-yl)oxy)-N-(thiazol-2-yl)benzenesulfonamide] displayed an IC50 of over 100 nM.
Molecule `N#Cc1cc(S(=O)(=O)Nc2cscn2)ccc1Oc1cnc(-c2ccc(F)c(F)c2)cc1-c1cn[nH]c1` [Example 91, 3-cyano-4-((6-(3,4-difluorophenyl)-4-(1H-pyrazol-4-yl)pyridin-3-yl)oxy)-N-(thiazol-4-yl)benzenesulfonamide] displayed an IC50 of over 100 nM.
The figure for `O=S(=O)(Nc1cscn1)c1cc(F)c(Oc2cnc(-c3cccc(F)c3)cc2-c2cccnc2)cc1F` [Example 87, 2,5-difluoro-4-((6′-(3-fluorophenyl)-[3,4′-bipyridin]-3′-yl)oxy)-N-(thiazol-4-yl)benzenesulfonamide] is over 100 nM; for `Cn1cc(-c2cc(-c3ccccc3F)ncc2Oc2cc(F)c(S(=O)(=O)Nc3cscn3)cc2Cl)cn1` [Example 63, 5-chloro-2-fluoro-4-((6-(2-fluorophenyl)-4-(1-methyl-1H-pyrazol-4-yl)pyridin-3-yl)oxy)-N-(thiazol-4-yl)benzenesulfonamide 2,2,2-trifluoroacetate] it is over 100 nM.
As to `Cn1nccc1-c1cc(-c2ccc(F)cc2)ncc1Oc1ccc(S(=O)(=O)Nc2nccs2)cc1C#N` [Example 23, 3-cyano-4-((6-(4-fluorophenyl)-4-(1-methyl-1H-pyrazol-5-yl)pyridin-3-yl)oxy)-N-(thiazol-2-yl)benzenesulfonamide], the IC50 was over 100 nM.
Molecule `Cn1nccc1-c1cc(-c2cccc(F)c2)ncc1Oc1cc(F)c(S(=O)(=O)Nc2cscn2)cc1Cl` [Example 71, 5-chloro-2-fluoro-4-((6-(3-fluorophenyl)-4-(1-methyl-1H-pyrazol-5-yl)pyridin-3-yl)oxy)-N-(thiazol-4-yl)benzenesulfonamide] registered an IC50 of over 100 nM.
`O=S(=O)(Nc1cscn1)c1cc(Cl)c(Oc2cnc(-c3cccnc3F)cc2-c2ccoc2)cc1F` [Example 56, 5-chloro-2-fluoro-4-((2′-fluoro-4-(furan-3-yl)-[2,3′-bipyridin]-5-yl)oxy)-N-(thiazol-4-yl)benzenesulfonamide] registered an IC50 of over 100 nM.
Consider `O=S(=O)(Nc1nccs1)c1ccc(C(O)c2ccc(-c3ccccc3F)cc2-c2ccoc2)cc1` (stereo not drawn) [Example 152, 4-((2′-fluoro-3-(furan-3-yl)-[1,1′-biphenyl]-4-yl)(hydroxy)methyl)-N-(thiazol-2-yl)benzenesulfonamide], for which the IC50 is over 100 nM.
In turn, `N#Cc1cc(S(=O)(=O)Nc2nccs2)ccc1Oc1cnc(-c2ccccc2)cc1-c1cncnc1` [Example 34, 3-cyano-4-((6-phenyl-4-(pyrimidin-5-yl)pyridin-3-yl)oxy)-N-(thiazol-2-yl)benzenesulfonamide] had an IC50 of over 100 nM.
Molecule `O=S(=O)(Nc1cscn1)c1cc(Cl)c(Oc2cnc(-c3cccc(F)c3)cc2-c2cncnc2)cc1F` [Example 76, 5-chloro-2-fluoro-4-((6-(3-fluorophenyl)-4-(pyrimidin-5-yl)pyridin-3-yl)oxy)-N-(thiazol-4-yl)benzenesulfonamide] showed an IC50 of over 100 nM.
Molecule `Cn1nccc1-c1nc(-c2cccnc2F)ccc1Oc1ccc(S(=O)(=O)Nc2nccs2)cc1C#N` [Example 116, 3-cyano-4-((2′-fluoro-6-(1-methyl-1H-pyrazol-5-yl)-[2,3′-bipyridin]-5-yl)oxy)-N-(thiazol-2-yl)benzenesulfonamide] displayed an IC50 of over 100 nM.
As for `N#Cc1cc(S(=O)(=O)Nc2nccs2)ccc1Oc1cnc(-c2cccc(F)c2)cc1-c1cccnc1` [Example 50, 3-cyano-4-((6′-(3-fluorophenyl)-[3,4′-bipyridin]-3′-yl)oxy)-N-(thiazol-2-yl)benzenesulfonamide], the IC50 is under 50 nM.
With `O=S(=O)(Nc1nccs1)c1ccc(C(O)c2ccc(Cl)cc2-c2ccncc2)c(F)c1` (stereo not drawn) [Example 146, 4-((4-chloro-2-(pyridin-4-yl)phenyl)(hydroxy)methyl)-3-fluoro-N-(thiazol-2-yl)benzenesulfonamide], the IC50 was over 100 nM.
As for `Cn1cc(-c2nc(-c3ccc(F)nc3F)ccc2Oc2ccc(S(=O)(=O)Nc3nccs3)cc2C#N)cn1` [Example 126, 3-cyano-4-((2′,6′-difluoro-6-(1-methyl-1H-pyrazol-4-yl)-[2,3′-bipyridin]-5-yl)oxy)-N-(thiazol-2-yl)benzenesulfonamide], the IC50 was over 100 nM.
The figure for `Cn1nccc1-c1nc(-c2cnoc2)ccc1Oc1ccc(S(=O)(=O)Nc2nccs2)cc1C#N` [Example 121, 3-cyano-4-((6-(isoxazol-4-yl)-2-(1-methyl-1H-pyrazol-5-yl)pyridin-3-yl)oxy)-N-(thiazol-2-yl)benzenesulfonamide] is over 100 nM; for `N#Cc1cc(S(=O)(=O)Nc2nccs2)ccc1Oc1cnc(-c2ccccc2)cc1-c1ccnc(Cl)c1Cl` [Example 36, 3-cyano-4-((2′,3′-dichloro-6-phenyl-[4,4′-bipyridin]-3-yl)oxy)-N-(thiazol-2-yl)benzenesulfonamide] it is over 100 nM.
On to `O=S(=O)(Nc1nccs1)c1ccc(C(O)c2ccc(-c3ccc(F)nc3)cc2-c2ccoc2)cc1` (stereo not drawn) [Example 151, 4-((4-(6-fluoropyridin-3-yl)-2-(furan-3-yl)phenyl)(hydroxy)methyl)-N-(thiazol-2-yl)benzenesulfonamide], for which the IC50 is over 100 nM.
`N#Cc1cc(S(=O)(=O)Nc2nccs2)ccc1Oc1cnc(-c2ccncc2)cc1-c1ccoc1` [Example 14, 3-cyano-4-(4-(furan-3-yl)-2,4′-bipyridin-5-yloxy)-N-(thiazol-2-yl)benzenesulfonamide] gave a half-maximal inhibitory concentration (IC50) of over 100 nM.
Take `Cc1cc(-c2cc(-c3ccccc3)ncc2Oc2ccc(S(=O)(=O)Nc3nccs3)cc2C#N)c(C)s1` [Example 41, 3-cyano-4-((4-(2,5-dimethylthiophen-3-yl)-6-phenylpyridin-3-yl)oxy)-N-(thiazol-2-yl)benzenesulfonamide]: the IC50 is over 100 nM.
In turn, `N#Cc1cc(S(=O)(=O)Nc2nccs2)ccc1Oc1cnc(-c2ccc(F)cc2)cc1-c1ccoc1` [Example 7, 3-cyano-4-(6-(4-fluorophenyl)-4-(furan-3-yl)pyridin-3-yloxy)-N-(thiazol-2-yl)benzenesulfonamide] gave an IC50 of 51 to 100 nM.
